# PubChem BioAssay AID1996
# Conditions: buffer; pH 7.4; 200.0 µM
row,SMILES,solubility kinetic [µg/mL]
1,COc1cc(C)c(NC(=O)Cc2ccsc2)cc1OC,42.4
2,COC(=O)c1nc(N)sc1C(C)C,> 30
3,O=C(O)c1cnc2[nH]c3ccccc3n2c1=O,> 34.4
4,Cl.O=C(CCN1CCN(CCO)CC1)N1c2ccccc2Sc2ccc(C(F)(F)F)cc21,65.7
5,O=C1CC(N2CCSCC2)C(=O)N1c1cccc(Cl)c1 (configuration not stated),> 46.6
6,O=C1Nc2cc3c(cc2C1=O)sc1ccccc13,3.1
7,COCCN(CC(=O)Nc1cccc(C)c1C)C(=O)C1(c2ccc(Cl)cc2)CCC1,33.8
8,COC(=O)c1ccc(S(=O)(=O)N2CCOCC2)o1,> 41.3
9,O=C(Nc1ccccc1Cl)C1C(c2ccccc2)C1(Cl)Cl (configuration not stated),< 0.7
10,O=C(NCCc1ccccc1)c1ccc2c(c1)OCCCO2,39.8
11,CCC(COC(C)=O)Nc1nc2c([nH]1)c(=O)n(C)c(=O)n2C (configuration not stated),> 46.4
12,Cc1nc2cc(Cl)c(Cl)cc2n1CCCO,33.9
13,O=C(CN1C(=O)CNC1=O)Nc1ccc(Cl)cc1,> 40.2
14,c1ccc(Oc2cccc3cccnc23)nc1,32.5
15,COC(=O)c1cc(C(=O)OC)cc(-n2c(C)cc(C=O)c2C)c1,35.8
16,Cc1ccccc1C(=O)NCC(=O)N1CCN(C/C=C/c2ccccc2)CC1,> 56.6
17,Cc1ccc(S(=O)(=O)NC(=O)COc2ccccc2)cc1,> 45.8
18,Cc1cc(C)c(Nc2ncnc(N)n2)c(C)c1,> 34.4
19,COc1ccc(NC(=S)Nc2cccc(C)n2)cc1,< 0.2
20,COc1ccccc1C(C)NCC(=O)Nc1c(F)cccc1F (configuration not stated),> 48.1
21,Cc1ccc(CSC2=Nc3ccccc3C3=NC(=O)CN23)cc1,4.9
22,CC(=O)N1CCN=C1SCc1cccc(Cl)c1,> 40.3
23,CSC1=NC2(CCCCC2)CC12C=CC(=O)C=C2,36.2
24,COc1ccc(Cl)cc1C(=O)Nc1cccnc1Cl,< 0.3
25,C=CCn1cccc(C(=O)Nc2ccc(C)c(C)c2)c1=O,33.4

row,SMILES,solubility kinetic [µg/mL]
1,Cc1ccnc(NC(=O)CNC(=O)c2ccccc2)c1,> 40.4
2,O=C1NC(c2cccc([N+](=O)[O-])c2)=CCN1c1ccccc1O,45.2
3,Cc1nccn1Cc1ccccc1,24.7
4,Cc1csc(NC(=O)c2cccc([N+](=O)[O-])c2C(=O)O)n1,> 46.1
5,CC(=O)c1c(C)oc2ccc(NS(=O)(=O)c3ccc(F)cc3C)cc12,< 0.8
6,O=c1[nH]c(C(F)(F)F)nc2ccc3ccccc3c12,> 39.6
7,COc1ccc(-c2cc(C(=O)NC3CCCC3)c3ccccc3n2)cc1,4.7
8,COc1cc2sc(C)nc2c2ccccc12,2.9
9,CC(C)NC(=S)Nc1ccc2[nH]c(=O)[nH]c2c1,> 37.5
10,CC1CCCCC1NC1CCN(C)CC1 (configuration not stated),> 31.6
11,COc1ccc(CC(=O)NCCCSc2ccccc2)cc1OC,45.9
12,COc1cccc(CNC(=O)CCC(=O)N2CCOCC2)c1,> 46
13,O=C(Nc1ccc(F)cc1F)c1cc2ccccc2oc1=O,< 0.6
14,CC(C)CNC(=O)N1c2ccccc2Sc2ccccc21,7.1
15,Cc1cc(C)c(C#N)c(SCc2ccc(C(=O)O)cc2)n1,> 44.8
16,Cc1cc(=O)[nH]c(SCC(=O)NC2CCCCCC2)n1,> 44.3
17,O=C(CC12CC3CC(CC(C3)C1)C2)NCc1ccc(F)cc1,< 0.6
18,COc1ccc(COc2cccnc2N)cc1,20.1
19,CCN(CC)S(=O)(=O)c1c(OC)cc(C)c(Cl)c1C,18.3
20,Fc1ccc(CNC(=S)Nc2ccccc2F)cc1,> 41.7
21,Cc1cccc(C)c1NC(=O)CN(C)C(=O)CCC(=O)N1CCOCC1,> 54.2
22,O=C(CNC(=O)c1ccccc1F)NCCc1ccc(Cl)cc1,47.5
23,O=C(CN1CCOCC1)Nc1ccc(NC(=O)c2ccccc2F)cc1,> 53.6
24,O=[N+]([O-])c1c(NCCO)cc(N2CCCCC2)c2nonc12,38.6
25,Cc1cccc(CSCc2ccc(C(=O)NCC3CCCO3)o2)c1 (configuration not stated),46.6

row,SMILES,solubility kinetic [µg/mL]
1,Cc1ccc(OCC(=O)NCCNC(=O)c2cccnc2)cc1C,46.7
2,Cc1ccc(CN2C(=O)CSC2c2cccnc2)cc1 (configuration not stated),> 42.7
3,CCOc1ccc(S(=O)(=O)NC2CCCCC2C)cc1 (configuration not stated),37.5
4,CCC(=O)Nc1cc(-c2cc3ccccc3oc2=O)ccc1OC,11
5,CC1CCCN(S(=O)(=O)c2cc3c4c(c2)CCN4C(=O)CC3)C1 (configuration not stated),> 50.2
6,CC(=O)NCCc1nc2cc(NC(=O)c3ccc(Cl)cc3)ccc2n1C,35.7
7,Cc1csc(CN(C)C(=O)C2CCC(=O)N(CCN(C)C)C2)n1 (configuration not stated),32.9
8,CSCCC(NC(=O)c1cccc(C)c1)C(=O)NCc1cccs1 (configuration not stated),> 54.4
9,CCOc1ccccc1NC(=O)CCCNC(=O)c1ccc(Cl)cc1,50.4
10,CCc1nc2cccnc2n1-c1ccc(CC(=O)NC(C)CC)cc1 (configuration not stated),> 50.5
11,COc1ccc(NC2=C(NC(C)=O)C(=O)c3ccccc3C2=O)cc1,49.5
12,CC(=O)c1cccc(NC(=O)c2cc(-c3cccs3)on2)c1,< 0.3
13,COc1ccc(C(=O)N2CC(c3ccccc3)CC2=O)cc1 (configuration not stated),3.4
14,CN(C(=O)c1coc(=O)c2ccccc12)c1ccccc1Cl,44.2
15,CC(C)(C)C(=O)O/N=C(\N)c1ccc(Br)cc1,30.3
16,CCOC(=O)c1ccc(S(=O)(=O)N2CCN(CCc3ccncc3)CC2)cc1,> 60.5
17,O=S(=O)(c1ccccc1)c1nc(-c2ccccc2)oc1N1CCOCC1,1.2
18,CCC(=O)N(Cc1cc(=O)[nH]c2ccccc12)c1ccc(C)cc1C,43.9
19,CCN(CC)c1ccc(C(=S)NCc2ccccc2)cc1,0.5
20,O=C(C1CCCCC1)N1CCC(O)(c2ccc(Cl)cc2)CC1,> 48.3
21,COc1ccccc1NC(=O)c1ccc2c(c1)OCO2,39.7
22,O=C(NC(=O)N1CCCc2ccccc21)c1ccccc1,30.2
23,CC(C)c1ccccc1NC(=O)COC(=O)c1cccnc1,> 44.8
24,O=C(COC(=O)c1cccnc1Cl)NCCC1=CCCCC1,> 48.4
25,CN(CC(=O)Nc1ccc(C(N)=O)cc1)S(=O)(=O)c1ccc2c(c1)OCCO2,9.4

row,SMILES,solubility kinetic [µg/mL]
1,CSc1ccccc1NC(=O)COc1ccccc1C,< 0.6
2,Cc1ccccc1C(=O)Nc1ccc(CN2CCOCC2)cc1,45.9
3,Cc1cccc(NC(=S)NC(=O)Cc2ccccc2)c1C,1.1
4,Cc1ccc(C(=O)NCC(c2ccco2)N2CCOCC2)cc1 (configuration not stated),> 47.2
5,Nc1cc(Nc2ccccc2)ccn1.O=P(O)(O)O,> 42.5
6,CCN1CCN(C(=S)NC(=O)/C=C/c2cccs2)CC1,44.8
7,CC(=O)c1ccccc1NC(=O)COC(=O)/C=C/c1ccc(C)o1,< 0.7
8,CC(=O)Nc1nc2ccccc2n1Cc1ccc(C)cc1,8.1
9,CCOC(=O)c1ccc(N2C(=O)c3cccc4c(C(=O)O)ccc(c34)C2=O)cc1,25
10,COc1ccc(OCC(=O)Nc2ccccc2Cl)cc1,4.5
11,CC(=O)c1c(C)[nH]c(C(=O)Nc2cccc(C)n2)c1C,21.4
12,CCc1noc(C)c1C(=O)NCCc1c[nH]c2ccccc12,> 44.6
13,C=Cn1c(C(=O)O)ccc1-c1ccc(OC)cc1,> 36.5
14,CN1CCN(C(=O)c2ccccc2[N+](=O)[O-])CC1,31.5
15,CCC(C)[C@H](NC(=O)Nc1ccc2c(c1)OCCO2)C(=O)OC (some centres not stated),> 48.4
16,COC(=O)c1ccc(C(=O)OC)c(NC(=O)c2cccnc2)c1,2.3
17,O=C(COC(=O)CNC(=O)c1ccccc1F)NC1CC1,> 44.1
18,COc1ccccc1Nc1nc(N)nc(CCl)n1,35.4
19,O=C(C1=C(O)C(=O)N(CCOCCO)C1c1ccccn1)c1cccs1 (configuration not stated),> 56.2
20,COc1cccc(S(=O)(=O)NCc2ccc(C(=O)N3CCN(C)CC3)cc2)c1,> 60.5
21,O=C1NC(c2ccccc2)Oc2ccccc21 (configuration not stated),22.9
22,O=C(O)C(Cc1ccccc1)N1C(=O)c2c(Cl)c(Cl)c(Cl)c(Cl)c2C1=O (configuration not stated),> 65
23,O=C(NNC(=O)c1ccncc1)c1ccccc1,> 36.2
24,O=C(c1cc2cc(Br)ccc2s1)N1CCOCC1,45.8
25,S=C(NCc1ccco1)NC1CCCc2ccccc21 (configuration not stated),36.4

row,SMILES,solubility kinetic [µg/mL]
1,O=C1C2C3CC(C2C(=O)N1c1cccc(Cl)c1)[C@H](O)C3O (some centres not stated),> 46.2
2,CCc1nnc(NC(=O)CSc2nc(C)cs2)s1,> 45.1
3,CC(C)OC(=O)CSc1nc2c(cc1C#N)CCCCC2,< 0.3
4,O=Cc1ccc(C(=O)OCC(=O)NCc2ccco2)cc1,> 43.1
5,CN1CCCN(Cc2cccc3ccccc23)CC1,24.7
6,Cc1ccc(C(=O)Nc2sc3c(c2C(=O)O)CCCC3)o1,> 45.8
7,O=C(Nc1cc2c3c(c1)CC(=O)N3CCC2)c1ccc(Cl)cc1,6.6
8,CCOC(=O)C1Nc2ccc(C(=O)O)cc2C2C=CCC12 (configuration not stated),> 43.1
9,Cn1c(-c2cccc(Br)c2)cnc1NCc1ccccc1O,6.3
10,Nc1ccc(-c2nc(-c3ccccc3)nc3ccccc23)cc1,0.5
11,Cc1ccc(O)c(CNc2cccc(C)n2)c1,22.5
12,CC(C)n1cnc2cc(NCc3ccccc3O)ccc21,32
13,CC(C)c1ccc(C(=O)OCC(=O)NC2CCCC2)cc1,11.8
14,CCOc1ccc(CNC(=O)CCc2cn(C)c3ccccc23)cc1,2.1
15,COC(=O)CCCN1C(=O)c2cccc3cccc(c23)C1=O,43.6
16,CCOC(=O)c1c(C)[nH]c(C(=O)COC(=O)c2cccnc2Cl)c1C,4.7
17,COc1ccc(NC(=O)N2CCc3ccccc3C2)cc1OC,> 46.9
18,CCOc1ccccc1CN1C2CCC1CC(c1ccc(C)cc1)C2 (configuration not stated),35
19,CCOc1ccc(C(=O)N2CCN(c3ccccc3)CC2)cc1,46.5
20,Cc1cc(NC(=O)NC(=O)c2ccccc2F)no1,3
21,O=C(NCCNc1ccc(Cl)cc1[N+](=O)[O-])c1ccccc1F,1.5
22,COc1ccccc1-c1cc(C(=O)N2CCOCC2)no1,> 43.2
